# Reference: publication PMC3521580 (Journal of medicinal chemistry, 2011)
# Like-named read-outs stand apart in the source and are kept apart here. Non-standard residues stand in square brackets, D forms with d. Residues, ends and D or L forms follow the SMILES beside them. *: point of attachment. X1 = CC(=O)NCCCC(CCCNC(C)=O)(NC(=O)CNC(=O)Cn1cc(CCC(=O)*)nn1)C(=O)NCCC(N)=O
# Columns and labels:
# human MC4R [1] = molecular target: T1, human MC4R (Homo sapiens, UniProt P32245); assay: cAMP biological response chemiluminescent immunoassay in Hek293/hMC4R cells; format: cell-based; settings: hMC4R cells, result in words
# T1 sequence (P32245 whole entry): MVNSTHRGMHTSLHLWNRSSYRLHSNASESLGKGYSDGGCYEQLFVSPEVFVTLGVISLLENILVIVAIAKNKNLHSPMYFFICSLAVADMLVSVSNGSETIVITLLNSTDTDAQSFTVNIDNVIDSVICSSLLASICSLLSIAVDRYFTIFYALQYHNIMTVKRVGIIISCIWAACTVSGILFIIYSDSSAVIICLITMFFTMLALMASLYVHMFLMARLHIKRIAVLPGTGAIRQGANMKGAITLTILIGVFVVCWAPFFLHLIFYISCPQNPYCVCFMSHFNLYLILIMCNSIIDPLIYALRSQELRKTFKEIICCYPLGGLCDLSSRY
# human MC4R [2] = molecular target: T1, human MC4R; assay: Time resolved fluorescence competition binding assay against Eu-NDP-α-MSH; settings: for Relative potency to Ac-MSH(4): Table 2
SMILES,"cAMP production, agonist activity at MC4R (human MC4R [1])","Relative potency to NB397 (human MC4R [2]; Table 3, ratio of IC50 values, fold)",IC50 (human MC4R [2]),"Relative potency to Ac-MSH(4) (human MC4R [2]; ratio of IC50 values, fold)","IC50 (human MC4R [2]; IC50, MC4R binding affinity as quoted in the text)"
CC(=O)NCC(=O)NC(CCCNC(=O)Cn1cc(CCC(=O)NCCCC[C@H](NC(C)=O)C(=O)N[C@@H](Cc2c[nH]cn2)C(=O)N[C@H](Cc2ccccc2)C(=O)N[C@@H](CCCNC(=N)N)C(=O)N[C@@H](Cc2c[nH]c3ccccc23)C(N)=O)nn1)(CCCNC(=O)Cn1cc(CCC(=O)NCCCC[C@H](NC(C)=O)C(=O)N[C@@H](Cc2c[nH]cn2)C(=O)N[C@H](Cc2ccccc2)C(=O)N[C@@H](CCCNC(=N)N)C(=O)N[C@@H](Cc2c[nH]c3ccccc23)C(N)=O)nn1)C(=O)NCCC(N)=O (stereo partly shown) [NB399],agonists,16,–,–,–
CC(=O)N[C@@H](CCCCNC(=O)CCc1cn(CC(=O)NCC(=O)N2CCC[C@H]2C(=O)NCC(=O)NCCCC(CCCNC(=O)CNC(=O)[C@@H]2CCCN2C(=O)CNC(=O)Cn2cc(CCC(=O)NCCCC[C@H](NC(C)=O)C(=O)N[C@@H](Cc3c[nH]cn3)C(=O)N[C@H](Cc3ccccc3)C(=O)N[C@@H](CCCNC(=N)N)C(=O)N[C@@H](Cc3c[nH]c4ccccc34)C(N)=O)nn2)(NC(=O)CNC(=O)CNC(=O)[C@@H]2CCCN2C(=O)CNC(=O)Cn2cc(CCC(=O)NCCCC[C@H](NC(C)=O)C(=O)N[C@@H](Cc3c[nH]cn3)C(=O)N[C@H](Cc3ccccc3)C(=O)N[C@@H](CCCNC(=N)N)C(=O)N[C@@H](Cc3c[nH]c4ccccc34)C(N)=O)nn2)C(=O)NCCC(N)=O)nn1)C(=O)N[C@@H](Cc1c[nH]cn1)C(=O)N[C@H](Cc1ccccc1)C(=O)N[C@@H](CCCNC(=N)N)C(=O)N[C@@H](Cc1c[nH]c2ccccc12)C(N)=O (stereo partly shown) [NB298],–,–,0.22 ± 0.059 µM,21,–
CC(=O)N[C@@H](CCCCNC(=O)CCc1cn(CC(=O)NCCCC(CCCNC(=O)Cn2cc(CCC(=O)NCCCC[C@H](NC(C)=O)C(=O)N[C@@H](Cc3c[nH]cn3)C(=O)N[C@H](Cc3ccccc3)C(=O)N[C@@H](CCCNC(=N)N)C(=O)N[C@@H](Cc3c[nH]c4ccccc34)C(N)=O)nn2)(NC(=O)CNC(=O)Cn2cc(CCC(=O)NCCCC[C@H](NC(C)=O)C(=O)N[C@@H](Cc3c[nH]cn3)C(=O)N[C@H](Cc3ccccc3)C(=O)N[C@@H](CCCNC(=N)N)C(=O)N[C@@H](Cc3c[nH]c4ccccc34)C(N)=O)nn2)C(=O)NCCC(N)=O)nn1)C(=O)N[C@@H](Cc1c[nH]cn1)C(=O)N[C@H](Cc1ccccc1)C(=O)N[C@@H](CCCNC(=N)N)C(=O)N[C@@H](Cc1c[nH]c2ccccc12)C(N)=O (stereo partly shown) [NB297],–,–,0.071 ± 0.0053 µM,64,~0.072 µM
CC(=O)N[C@@H](CCCCNC(=O)CCc1cn(CC(=O)NCC(=O)N2CCC[C@H]2C(=O)NCC(=O)N2CCC[C@H]2C(=O)NCC(=O)NCCCC(CCCNC(=O)CNC(=O)[C@@H]2CCCN2C(=O)CNC(=O)[C@@H]2CCCN2C(=O)CNC(=O)Cn2cc(CCC(=O)NCCCC[C@H](NC(C)=O)C(=O)N[C@@H](Cc3c[nH]cn3)C(=O)N[C@H](Cc3ccccc3)C(=O)N[C@@H](CCCNC(=N)N)C(=O)N[C@@H](Cc3c[nH]c4ccccc34)C(N)=O)nn2)(NC(=O)CNC(=O)CNC(=O)[C@@H]2CCCN2C(=O)CNC(=O)[C@@H]2CCCN2C(=O)CNC(=O)Cn2cc(CCC(=O)NCCCC[C@H](NC(C)=O)C(=O)N[C@@H](Cc3c[nH]cn3)C(=O)N[C@H](Cc3ccccc3)C(=O)N[C@@H](CCCNC(=N)N)C(=O)N[C@@H](Cc3c[nH]c4ccccc34)C(N)=O)nn2)C(=O)NCCC(N)=O)nn1)C(=O)N[C@@H](Cc1c[nH]cn1)C(=O)N[C@H](Cc1ccccc1)C(=O)N[C@@H](CCCNC(=N)N)C(=O)N[C@@H](Cc1c[nH]c2ccccc12)C(N)=O (stereo partly shown) [NB299],–,–,0.41 ± 0.07 µM,11,–
CC(=O)NCCCC(CCCNC(C)=O)(NC(=O)CNC(=O)Cn1cc(CCC(=O)NCCCC[C@H](NC(C)=O)C(=O)N[C@@H](Cc2c[nH]cn2)C(=O)N[C@H](Cc2ccccc2)C(=O)N[C@@H](CCCNC(=N)N)C(=O)N[C@@H](Cc2c[nH]c3ccccc23)C(N)=O)nn1)C(=O)NCCC(N)=O [NB397] (Ac-K(X1)H[dF]RW-NH2; N-terminus assumed),agonists,–,–,–,–
CC(=O)N[C@@H](CCCCNC(=O)CCc1cn(CC(=O)NCCC(=O)NCCC(=O)NCCCC(CCCNC(=O)CCNC(=O)CCNC(=O)Cn2cc(CCC(=O)NCCCC[C@H](NC(C)=O)C(=O)N[C@@H](Cc3c[nH]cn3)C(=O)N[C@H](Cc3ccccc3)C(=O)N[C@@H](CCCNC(=N)N)C(=O)N[C@@H](Cc3c[nH]c4ccccc34)C(N)=O)nn2)(NC(=O)CNC(=O)CCNC(=O)CCNC(=O)Cn2cc(CCC(=O)NCCCC[C@H](NC(C)=O)C(=O)N[C@@H](Cc3c[nH]cn3)C(=O)N[C@H](Cc3ccccc3)C(=O)N[C@@H](CCCNC(=N)N)C(=O)N[C@@H](Cc3c[nH]c4ccccc34)C(N)=O)nn2)C(=O)NCCC(N)=O)nn1)C(=O)N[C@@H](Cc1c[nH]cn1)C(=O)N[C@H](Cc1ccccc1)C(=O)N[C@@H](CCCNC(=N)N)C(=O)N[C@@H](Cc1c[nH]c2ccccc12)C(N)=O (stereo partly shown) [NB302],–,–,0.12 ± 0.01 µM,38,–
CC(=O)N[C@@H](CCCCNC(=O)CCc1cn(CC(=O)NCC(=O)N2CCC[C@H]2C(=O)NCC(=O)N2CCC[C@H]2C(=O)NCC(=O)N2CCC[C@H]2C(=O)NCC(=O)NCCCC(CCCNC(=O)CNC(=O)[C@@H]2CCCN2C(=O)CNC(=O)[C@@H]2CCCN2C(=O)CNC(=O)[C@@H]2CCCN2C(=O)CNC(=O)Cn2cc(CCC(=O)NCCCC[C@H](NC(C)=O)C(=O)N[C@@H](Cc3c[nH]cn3)C(=O)N[C@H](Cc3ccccc3)C(=O)N[C@@H](CCCNC(=N)N)C(=O)N[C@@H](Cc3c[nH]c4ccccc34)C(N)=O)nn2)(NC(=O)CNC(=O)CNC(=O)[C@@H]2CCCN2C(=O)CNC(=O)[C@@H]2CCCN2C(=O)CNC(=O)[C@@H]2CCCN2C(=O)CNC(=O)Cn2cc(CCC(=O)NCCCC[C@H](NC(C)=O)C(=O)N[C@@H](Cc3c[nH]cn3)C(=O)N[C@H](Cc3ccccc3)C(=O)N[C@@H](CCCNC(=N)N)C(=O)N[C@@H](Cc3c[nH]c4ccccc34)C(N)=O)nn2)C(=O)NCCC(N)=O)nn1)C(=O)N[C@@H](Cc1c[nH]cn1)C(=O)N[C@H](Cc1ccccc1)C(=O)N[C@@H](CCCNC(=N)N)C(=O)N[C@@H](Cc1c[nH]c2ccccc12)C(N)=O (stereo partly shown) [NB300],–,–,0.62 ± 0.051 µM,7,–
CC(=O)N[C@@H](CCCCNC(=O)CCc1cn(CC(=O)NCCC(=O)NCCCC(CCCNC(=O)CCNC(=O)Cn2cc(CCC(=O)NCCCC[C@H](NC(C)=O)C(=O)N[C@@H](Cc3c[nH]cn3)C(=O)N[C@H](Cc3ccccc3)C(=O)N[C@@H](CCCNC(=N)N)C(=O)N[C@@H](Cc3c[nH]c4ccccc34)C(N)=O)nn2)(NC(=O)CNC(=O)CCNC(=O)Cn2cc(CCC(=O)NCCCC[C@H](NC(C)=O)C(=O)N[C@@H](Cc3c[nH]cn3)C(=O)N[C@H](Cc3ccccc3)C(=O)N[C@@H](CCCNC(=N)N)C(=O)N[C@@H](Cc3c[nH]c4ccccc34)C(N)=O)nn2)C(=O)NCCC(N)=O)nn1)C(=O)N[C@@H](Cc1c[nH]cn1)C(=O)N[C@H](Cc1ccccc1)C(=O)N[C@@H](CCCNC(=N)N)C(=O)N[C@@H](Cc1c[nH]c2ccccc12)C(N)=O (stereo partly shown) [NB301],–,–,0.088 ± 0.012 µM,52,–
